Laboratory results as given in patent US20210171948A1, “COMPOSITIONS AND METHODS FOR TARGETING GLYPICAN-2 IN THE TREATMENT OF CANCER” (Shepherd Therapeutics, Inc., priority 2019, published 2021).
Strand notation (5' to 3'): a small letter for the sugar, then the base; units joined by * are phosphorothioate-linked, units joined directly phosphodiester-linked; [ ] holds rarer units or linkages, { } end groups; capitals alone tell only the bases. d = 2'-deoxy (DNA); r = 2'-OH (RNA)

Legend:
[1] = system: spheroids from CHP212, SKNAS, SK-N-BE2 and CHLA90 neuroblastoma cells; assay: Viability of established spheroid cultures after siRNA transfection (Example 11); format: cell-based; details: 96 hour following transfection; where GPC2 knockdown was observed (FIG. 7B)
Procedure: The effect of siRNA mediated GPC2 mRNA knockdown was also assessed on established spheroid cultures. Spheroids were established by seeding cells in low attachment plates and culturing for 96 hours. Spheroids were transfected with either a scrambled control siRNA or with GPC2 siRNA of sequence 5 or 7 from Table 7, using the RNAiMAX Lipofectamine kit (Invitrogen, Carlsbad, Calif.) as previously described. At the 96 hour time point following transfection, the degree of GPC2 mRNA knockdown (FIG. 7A) as well as spheroid viability (FIG. 7B) was measured.

[2] = system: CHP212 neuroblastoma cell line; assay: Cell viability after siRNA transfection, 96 hour (Example 4, FIG. 4B); format: cell-based; details: 96 hour incubation (FIG. 4B)
Procedure: The extent of GPC2 mRNA reduction was assessed with additional GPC2 siRNA sequences in the CHP212 neuroblastoma cell line. Cells were transfected with either a scrambled control siRNA or with GPC2 siRNA sequences 3 or 5, or with siRNA sequences 6-11 (Sigma) using the RNAiMAX Lipofectamine kit (Invitrogen, Carlsbad, Calif.) as previously described. Following a 96 hour incubation period, total RNA samples were collected and viability was measured in parallel plated cells.

[3] = system: GPC2 mRNA; assay: GPC2 mRNA knockdown in cell lines of the cisplatin experiment (Example 5); format: cell-based, human
Procedure: (§1) GPC2 mRNA was reduced using the indicated siRNAs and changes in cell viability were assessed in multiple cancer cell lines, in combination with Cisplatin treatment. Cells were transfected with either a scrambled control siRNA or with GPC2 siRNA sequences 3 or 5 from Table 7 using the RNAiMAX Lipofectamine kit (Invitrogen, Carlsbad, Calif.), as previously described, in either in 96 well (for viability assays) or 6 well format (for total RNA). Cisplatin was added at increasing concentrations (0 to 30 uM) to transfected cells at 24 hours post transfection. Following a 72 hour incubation period, cell viability was measured using Cell Titer Glo 2.0. Total RNA samples were also isolated to measure knockdown efficiency.

[4] = system: COV362 cells; assay: Cisplatin IC50 in siRNA-transfected cells, Cell Titer Glo 2.0 viability (Example 5); format: cell-based; details: for Data Summary: effect of knockdown on sensitivity to cisplatin: COV362; for IC50: COV362 cells transfected with the labelled siRNA, cisplatin added 24 hours post transfection, 72 hour incubation
Procedure: as §1

[5] = system: RH41 cells; assay: as above; format: cell-based; details: for IC50: RH41 cells transfected with the labelled siRNA, cisplatin added 24 hours post transfection, 72 hour incubation
Procedure: as §1

[6] = system: RH30 cells; assay: as above; format: cell-based; details: for Data Summary: effect of knockdown on sensitivity to cisplatin: RH30; for IC50: RH30 cells transfected with the labelled siRNA, cisplatin added 24 hours post transfection, 72 hour incubation
Procedure: as §1

[7] = system: CHLA-136 cells; assay: as above; format: cell-based; details: for Data Summary: effect of knockdown on sensitivity to cisplatin: CHLA-136; for IC50: CHLA-136 cells transfected with the labelled siRNA, cisplatin added 24 hours post transfection, 72 hour incubation
Procedure: as §1

[8] = system: SK-N-BE2 cells; assay: as above; format: cell-based; details: for IC50: SK-N-BE2 cells transfected with the labelled siRNA, cisplatin added 24 hours post transfection, 72 hour incubation
Procedure: as §1

[9] = system: CHLA-172 cells; assay: as above; format: cell-based; details: for Data Summary: effect of knockdown on sensitivity to cisplatin: CHLA-172; for IC50: CHLA-172 cells transfected with the labelled siRNA, cisplatin added 24 hours post transfection, 72 hour incubation
Procedure: as §1

[10] = system: TC32 cells; assay: as above; format: cell-based; details: for Data Summary: effect of knockdown on sensitivity to cisplatin: TC32; for IC50: TC32 cells transfected with the labelled siRNA, cisplatin added 24 hours post transfection, 72 hour incubation
Procedure: as §1

[11] = system: KELLY cells; assay: as above; format: cell-based; details: for IC50: KELLY cells transfected with the labelled siRNA, cisplatin added 24 hours post transfection, 72 hour incubation
Procedure: as §1

[12] = system: SKNAS cells; assay: as above; format: cell-based; details: for Data Summary: effect of knockdown on sensitivity to cisplatin: SKNAS; for IC50: SKNAS cells transfected with the labelled siRNA, cisplatin added 24 hours post transfection, 72 hour incubation
Procedure: as §1

[13] = system: GPC2 mRNA; assay: GPC2 mRNA knockdown in multiple cancer cell lines, 96 hour (Example 3); format: cell-based, human; details: 96 hour incubation; for GPC2 knockdown across the cell lines of Table 8: multiple cancer cell lines
Procedure: (§2) siRNAs 1-5 from Table 7 were diluted to 40 nM in OptiMEM media and mixed in a 1:3 ratio (weight by volume) with RNAiMAX. This was incubated for 15 minutes at room temperature and dispensed onto cells plated in a 6 well tissue culture plate. Total RNA samples were collected at either 72 hours post transfection to compare knockdown efficiency (FIG. 2A), or at 24, 48, 72 or 96 hours post transfection to determine the extent of GPC2 mRNA knockdown over time (FIG. 2B). Expression levels of mRNA of GPC2 were measured in these samples using primers specific for GPC2 obtained commercially from Thermofisher (Carlsbad, Calif.) and standard qPCR technique.
GPC2 mRNA knockdown and changes in cell viability were assessed in multiple cancer cell lines. Cells were transfected with either a scrambled control siRNA or with GPC2 siRNA sequence 3 or sequence 5 from Table 7 using the RNAiMAX Lipofectamine kit (Invitrogen, Carlsbad, Calif.) as previously described in Example 2, either in 96 well format (for viability assays) or 6 well format (for knockdown assessment). Following a 96 hour incubation period, cells were washed and the viability measurement was assessed using Cell Titer Glo 2.0. Total RNA was isolated from the 6 well plate samples to determine knockdown efficiency.

[14] = system: GPC2 mRNA; assay: GPC2 mRNA knockdown by qPCR in TC-32 Ewing's sarcoma cells transfected with siRNA (Example 2); format: cell-based, human; details: TC-32 cells; 72 hours post transfection
Procedure: as §2

[15] = GIST-T1 (Gastrointestinal Stromal)

## GPC2 siRNA 5: siRNA duplex: sense CUCAGUAGCCCAGCACUCU[dT][dT] (SEQ ID NO: 211), anti-sense AGAGUGCUGGGCUACUGAG[dT][dT] (SEQ ID NO: 212) (sense CUCAGUAGCCCAGCACUCUTT; antisense AGAGUGCUGGGCUACUGAGTT; sugars from the 5' end r19 d2, backbone not given here; listed as Homo sapiens)
[1]
  Viability of established spheroids: a decrease in spheroid viability was also seen
[2]
  Viability decrease among sequences 3, 5, 6-11: greater viability decrease
[3]; CHLA-90 (Neuroblastoma)
  % GPC2 knockdown: 55%
[3]; CHLA-136 (Neuroblastoma)
  % GPC2 knockdown: 35%
[3]; CHLA-172 (Neuroblastoma)
  % GPC2 knockdown: 8%
[3]; CHP212 (Neuroblastoma)
  % GPC2 knockdown: 70%
[3]; COV362 (Ovarian cancer)
  % GPC2 knockdown: 89%
[3]; [15]
  % GPC2 knockdown: 75%
[3]; KELLY (Neuroblastoma)
  % GPC2 knockdown: 75%
[3]; RH30 (Rhabdomyosarcoma)
  % GPC2 knockdown: 86%
[3]; RH41 (Rhabdomyosarcoma)
  % GPC2 knockdown: 70%
[3]; SH-SY5Y (Neuroblastoma)
  % GPC2 knockdown: 75%
[3]; SK-N-BE2 (Neuroblastoma)
  % GPC2 knockdown: 68%
[3]; SKNAS (Neuroblastoma)
  % GPC2 knockdown: 70%
[3]; SNU16 (Gastric carcinoma)
  % GPC2 knockdown: 52%
[3]; TC32 (Ewing's sarcoma)
  % GPC2 knockdown: 75%
[3]; TC71 (Ewing's sarcoma)
  % GPC2 knockdown: 60%
[3]; TOV112D (Ovarian cancer)
  % GPC2 knockdown: 86%
[4]
  Data Summary: effect of knockdown on sensitivity to cisplatin: does not increase
  IC50: 18 µM
[5]; RH41
  Data Summary: effect of knockdown on sensitivity to cisplatin: increases sensitivity to
[5]
  IC50: 1 µM
[6]
  Data Summary: effect of knockdown on sensitivity to cisplatin: does not increase
  IC50: 2.5 µM
[7]
  Data Summary: effect of knockdown on sensitivity to cisplatin: increases sensitivity to
  IC50: 6 µM
[8]; SK-N-BE2
  Data Summary: effect of knockdown on sensitivity to cisplatin: increases sensitivity to
[8]
  IC50: 3 µM
[9]
  Data Summary: effect of knockdown on sensitivity to cisplatin: does not increase
  IC50: 17 µM
[10]
  Data Summary: effect of knockdown on sensitivity to cisplatin: does not increase
  IC50: 1.2 µM
[11]; KELLY
  Data Summary: effect of knockdown on sensitivity to cisplatin: increases sensitivity to
[11]
  IC50: 2.5 µM
[12]
  Data Summary: effect of knockdown on sensitivity to cisplatin: increases sensitivity to
  IC50: 9 µM
[13]; CHP212 (Neuroblastoma)
  % GPC2 knockdown: 65%
[13]; COV362 (Ovarian Carcinoma)
  % GPC2 knockdown: 79%
[13]; [15]
  % GPC2 knockdown: 76%
[13]; IMR32 (Neuroblastoma)
  % GPC2 knockdown: 25%
[13]; MCF7 (Breast)
  % GPC2 knockdown: 82%
[13]; RH30 (Rhabdomyosarcoma)
  % GPC2 knockdown: 83%
[13]; RH41 (Rhabdomyosarcoma)
  % GPC2 knockdown: 60%
[13]; SKNAS (Neuroblastoma)
  % GPC2 knockdown: 44%
[13]; SNU16 (Gastric)
  % GPC2 knockdown: 25%
[13]; TC32 (Ewing's Sarcoma)
  % GPC2 knockdown: 57%
[13]; TC71 (Ewing's Sarcoma)
  % GPC2 knockdown: 33%
[13]; TOV112D (Ovarian Carcinoma)
  % GPC2 knockdown: 78%
[13]
  GPC2 knockdown across the cell lines of Table 8: GPC2 knockdown was observed in each cell line
[14]
  Degree of GPC2 knockdown among siRNA sequences 1-5: greatest degree of GPC2 knockdown

## GPC2 siRNA 3: siRNA duplex: sense CCUGCUUGGACCUCGAUAA[dT][dT] (SEQ ID NO: 207), anti-sense UUAUCGAGGUCCAAGCAGG[dT][dT] (SEQ ID NO: 208) (sense CCUGCUUGGACCUCGAUAANN; antisense UUAUCGAGGUCCAAGCAGGNN; 3' dTdT overhangs, chemistry not fully specified; listed as Homo sapiens)
[3]; CHLA-90 (Neuroblastoma)
  % GPC2 knockdown: 50%
[3]; CHLA-136 (Neuroblastoma)
  % GPC2 knockdown: 25%
[3]; CHLA-172 (Neuroblastoma)
  % GPC2 knockdown: 5%
[3]; CHP212 (Neuroblastoma)
  % GPC2 knockdown: 60%
[3]; COV362 (Ovarian cancer)
  % GPC2 knockdown: 85%
[3]; [15]
  % GPC2 knockdown: 55%
[3]; KELLY (Neuroblastoma)
  % GPC2 knockdown: 65%
[3]; RH30 (Rhabdomyosarcoma)
  % GPC2 knockdown: 80%
[3]; RH41 (Rhabdomyosarcoma)
  % GPC2 knockdown: 55%
[3]; SH-SY5Y (Neuroblastoma)
  % GPC2 knockdown: 55%
[3]; SK-N-BE2 (Neuroblastoma)
  % GPC2 knockdown: 55%
[3]; SKNAS (Neuroblastoma)
  % GPC2 knockdown: 40%
[3]; SNU16 (Gastric carcinoma)
  % GPC2 knockdown: 50%
[3]; TC32 (Ewing's sarcoma)
  % GPC2 knockdown: 70%
[3]; TC71 (Ewing's sarcoma)
  % GPC2 knockdown: 55%
[3]; TOV112D (Ovarian cancer)
  % GPC2 knockdown: 90%
[4]
  Data Summary: effect of knockdown on sensitivity to cisplatin: does not increase
  IC50: 6.4 µM
[5]
  IC50: 3.2 µM
[6]
  Data Summary: effect of knockdown on sensitivity to cisplatin: does not increase
  IC50: 2.1 µM
[7]
  Data Summary: effect of knockdown on sensitivity to cisplatin: increases sensitivity to
  IC50: 11 µM
[8]
  IC50: 8 µM
[9]
  Data Summary: effect of knockdown on sensitivity to cisplatin: does not increase
  IC50: 16 µM
[10]
  Data Summary: effect of knockdown on sensitivity to cisplatin: does not increase
  IC50: 2.3 µM
[11]
  IC50: 21.7 µM
[12]
  Data Summary: effect of knockdown on sensitivity to cisplatin: increases sensitivity to
  IC50: 20 µM
[13]; CHP212 (Neuroblastoma)
  % GPC2 knockdown: 50%
[13]; COV362 (Ovarian Carcinoma)
  % GPC2 knockdown: 85%
[13]; [15]
  % GPC2 knockdown: 61%
[13]; IMR32 (Neuroblastoma)
  % GPC2 knockdown: 36%
[13]; MCF7 (Breast)
  % GPC2 knockdown: 72%
[13]; RH30 (Rhabdomyosarcoma)
  % GPC2 knockdown: 78%
[13]; RH41 (Rhabdomyosarcoma)
  % GPC2 knockdown: 37%
[13]; SKNAS (Neuroblastoma)
  % GPC2 knockdown: 25%
[13]; SNU16 (Gastric)
  % GPC2 knockdown: 53%
[13]; TC32 (Ewing's Sarcoma)
  % GPC2 knockdown: 69%
[13]; TC71 (Ewing's Sarcoma)
  % GPC2 knockdown: 42%
[13]; TOV112D (Ovarian Carcinoma)
  % GPC2 knockdown: 89%
[13]
  GPC2 knockdown across the cell lines of Table 8: GPC2 knockdown was observed in each cell line
[14]
  Degree of GPC2 knockdown among siRNA sequences 1-5: greatest degree of GPC2 knockdown

## GPC2 siRNA 7: siRNA duplex: sense CUCCUUUCUGGUUCACACA[dT][dT] (SEQ ID NO: 215), anti-sense UGUGUGAACCAGAAAGGAG[dT][dT] (SEQ ID NO: 216) (sense rCrUrCrCrUrUrUrCrUrGrGrUrUrCrArCrArCrAdTdT; antisense rUrGrUrGrUrGrArArCrCrArGrArArArGrGrArGdTdT; listed as Homo sapiens)
[1]
  Viability of established spheroids: a decrease in spheroid viability was also seen
[2]
  Viability decrease among sequences 3, 5, 6-11: greater viability decrease
